The subject of one series is breast cancer patients. The following applies: intramuscular injection; cited from earlier work.
For series [1] the following is noted: cited from earlier work.
The nature of series [2]: Hygroscopicity study by dynamic vapor sorption (DVS). In kind it is physicochemical. The following applies: 25° C./80% RH. How it is done: Dynamic Vapor Sorption (DVS)
Instrument model: SMS DVS Advantage dynamic vapor sorption analyzer
Test conditions: samples (10-15 mg) were disposed in the DVS sample tray for testing.
The detailed DVS parameters were as follows:
Balance: dm/dt=0.01%/min (shortest: 10 min, longest: 180 min)
Drying: drying for 120 min at 0% RH
RH (%) test step range: 0%-90%-0%
The hygroscopicity evaluation is classified as follows:
SMS DVS Advantage dynamic vapor sorption analyzer

Series [3] in a line: Solid stability test under high humidity and light irradiation conditions (XRPD, HPLC). The series is classed as physicochemical. How it is done: High Performance Liquid Chromatograph (HPLC)
The bottles containing samples placed under high humidity condition were sealed with aluminum foil. Small holes were made in the aluminum foil to ensure that the samples can fully contact with the ambient air. The samples were tested on the 10th day. The bottles containing samples placed under light condition were left open and the samples were exposed to a light source, and tested after being irradiated enough energy. The test results were compared with the initial test results on day 0.

Series [4] can be described thus: Long-term crystal form stability test under high temperature and high humidity conditions (XRPD). The series is classed as physicochemical. To be noted: 40° C., 75% RH, 10th day and 31th day.

The values below come from patent publication US11034653B2, “Crystal form of estrogen receptor inhibitor and preparation method therefor” (LUOXIN PHARMACEUTICAL (SHANGHAI) CO., LTD., priority 2017, dated 2021).

The structures appear in SMILES notation.

As to `C[C@]12CC[C@@H]3c4ccc(O)cc4C[C@@H](CCCCCCCCC[S+]([O-])CCCC(F)(F)C(F)(F)F)[C@H]3[C@@H]1CC[C@@H]2O` (some centres unmarked) [fulvestrant], the “breast cancer patients who have shown a clinical response” value in the series on breast cancer patients is listed as “about 50%”. In addition, in series [1], the oral bioavailability entry is on record as “zero”.

`CC/C(=C(/c1ccc(/C=C/C(=O)O)cc1)c1[nH]c2ccccc2c1Cl)c1ccc(F)cc1Cl`: in series [2], the Hygroscopicity classification result is on record as “almost non-hygroscopic”. In series [2] (DVS), the “ΔW, weight increase caused by hygroscopy” value was 0.1687%. Also, in series [3] (0 day), the “Crystal form (XRPD)” value was “Crystal form A”, the “Purity (%)” value is 96.99%, the “Related substance at relative retention time 0.97 (HPLC)” value amounted to 0.21 and the “Related substance at relative retention time 1.02 (HPLC)” value came out at 0.36. Moreover, in series [3] (0 day), the “Related substance at relative retention time 1.05 (HPLC)” value is reported as 0.30 and the “Total content of related substances (%)” value was 0.87%. Further, the “Crystal form (XRPD)” value in series [3] (High humidity (room temperature/relative humidity 92.5%, exposed), 10th day) is recorded as “Crystal form A”. For the same compound, in series [3] (High humidity, 10 days), the “Related substance at relative retention time 0.97 (HPLC)” value was 0.22, the “Related substance at relative retention time 1.02 (HPLC)” value was determined as 0.23, the “Related substance at relative retention time 1.05 (HPLC)” value is 0.31 and the “Total content of related substances (%)” value turned out to be 0.77%. In series [3] (Light irradiation), the “Purity (%)” value came out at 101.09%, the “Related substance at relative retention time 0.88 (HPLC)” value came out at 0.05, the “Related substance at relative retention time 0.97 (HPLC)” value is reported as 0.22 and the “Related substance at relative retention time 0.98 (HPLC)” value stood at 0.17. In addition, in series [3] (Light irradiation), the “Related substance at relative retention time 1.02 (HPLC)” value amounted to 0.23, the “Related substance at relative retention time 1.04 (HPLC)” value amounted to 0.13, the “Related substance at relative retention time 1.05 (HPLC)” value is recorded as 0.17 and the “Total content of related substances (%)” value turned out to be 0.98%. The “Crystal form (XRPD)” value in series [3] (Light irradiation (1ICH, exposed)) was “Crystal form A”. Also, the “Solid stability (conclusion)” value in series [3] (high humidity and light irradiation condition) was “stable”. Besides, the “Crystal form stability (conclusion)” value in series [4] is “stable”.
